Measurements taken from patent US20190375708A1 (VenatoRx Pharmaceuticals, Inc., priority 2018, published 2019).

Key:
[1] = In vitro cytotoxicity assay (MTT cell viability) in HepG2 cells; format: cell-based, human; settings: human
Procedure, shortened: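 Read-out: MTT formazan absorbance at 492 nm, expressed as % of vehicle signal; CC50 by 4-parameter non-linear regression. Parental HepG2, 20,000 cells/well, treated 7 days with compound from 30 μM down to 1.0 nM.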

[2] = system: HBV replication in HepAD38 cells; test: Anti-HBV replication assay in HepAD38 cells (QPCR of extracellular HBV DNA); format: cell-based, HBV (genotype D, serotype ayw); settings: Hepatitis B virus, 168 h, 7 days incubation, extracellular HBV DNA by QPCR, read-out: Anti-HBV EC50
Procedure, shortened: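 Stably transfected HepG2-derived HepAD38 cells express HBV (genotype D, ayw) once tetracycline is withdrawn. Compounds act for 7 days, after which secreted HBV DNA is quantified by QPCR relative to DMSO-treated wells.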

SMILES | CC50 at 7 days [1] [µM] | EC50 [2] [nM]
O=C(NC1(CO)CC(F)(F)C1)C(=O)c1c(Cl)c(C(=O)Nc2ccc(F)c(F)c2)c2n1CCCC2 [Example 520, 2-chloro-3-(2-((3,3-difluoro-1-(hydroxymethyl)cyclobutyl)amino)-2-oxoacetyl)-N-(3,4-difluorophenyl)-5,6,7,8-tetrahydroindolizine-1-carboxamide] | > 30 | < 50
Cc1cc(NC(=O)c2c(C)c(C(=O)C(=O)N[C@]3(C)CC[C@H](O)CC3)n3c2CCCC3)ccc1F [Example 737, N-(4-fluoro-3-methylphenyl)-3-(2-(((1s,4s)-4-hydroxy-1-methylcyclohexyl)amino)-2-oxoacetyl)-2-methyl-5,6,7,8-tetrahydroindolizine-1-carboxamide] | > 30 | < 50
Cc1c(C(=O)Nc2ccc(F)nc2)c(C)n(C)c1C(=O)C(=O)NC(C)(C)CO [Example 120, N-(6-fluoropyridin-3-yl)-5-(2-((1-hydroxy-2-methylpropan-2-yl)amino)-2-oxoacetyl)-1,2,4-trimtehyl-1H-pyrrole-3-carboxamide] | > 30 | 500 to 1000
Cc1noc([C@@H](C)NC(=O)C(=O)c2c(Cl)c(C(=O)Nc3cnc(F)c(C)c3)c3n2CCC3)n1 [Example 735, (R)-6-chloro-N-(6-fluoro-5-methylpyridin-3-yl)-5-(2-((1-(3-methyl-1,2,4-oxxadiazol-5-yl)ethyl)amino)-2-oxoacetyl)-2,3-dihydro-1H-pyrrolizine-7-carboxamide] | 5 to 30 | 50 to 499
Cc1c(C(=O)Nc2ccnc(F)c2)c(C)n(C)c1C(=O)C(=O)NC1CCSCC1 [Example 272, N-(2-fluoropyridin-4-yl)-1,2,4-trimethyl-5-(2-oxo-2-((tetrahydro-2H-thiopyran-4-yl)amino)acetyl)-1H-pyrrole-3-carboxamide] | > 30 | < 50
Cc1noc([C@H](C)NC(=O)C(=O)c2c(C)c(C(=O)Nc3ccc(F)c(Cl)c3)c3n2CCCC3)n1 [Example 446, (S)-N-(3-chloro-4-fluorophenyl)-2-methyl-3-(2-((1-(3-methyl-1,2,4-oxadiazol-5-yl)ethyl)amino)-2-oxoacetyl)-5,6,7,8-tetrahydroindolizine-1-carboxamide] | 5 to 30 | 50 to 499
Cc1cc(NC(=O)c2c(C)c(C(=O)C(=O)NCC(C)(C)O)n(C)c2C)ccc1F [Example 66, N-(4-fluoro-3-methylphenyl)-5-(2-((2-hydroxy-2-methylpropyl)amino)-2-oxoacetyl)-1,2,4-trimethyl-1H-pyrrole-3-carboxamide] | > 30 | < 50
Cc1cc(NC(=O)c2c(Cl)c(C(=O)C(=O)NCC(C)(C)O)n3c2CCCC3)ccc1F [Example 497, 2-chloro-N-(4-fluoro-3-methylphenyl)-3-(2-((2-hydroxy-2-methylpropyl)amino)-2-oxoacetyl)-5,6,7,8-tetrahydroindoliine-1-carboxamide] | 0.5 to 4.99 | 50 to 499
Cc1cc(NC(=O)c2c(C)c(C(=O)C(=O)N[C@H]3CC[C@H](O)CC3)n(C)c2C)ccc1F [Example 246, N-(4-fluoro-3-methylphenyl)-5-(2-(((1r,4r)-4-hydroxycyclohexyl)amino)-2-oxoacetyl)-1,2,4-triemthyl-1H-pyrrole-3-carboxamide] | 5 to 30 | < 50
COC(=O)[C@@H](NC(=O)C(=O)c1c(C)c(C(=O)Nc2ccc(F)c(C)c2)c(C)n1C)[C@H](C)O [Example 45, methyl (2-(4-((4-fluoro-3-methylphenyl)carbamoyl)-1,3,5-trimethyl-1H-pyrrol-2-yl)-2-oxoacetyl)-L-allothreoninate] | > 30 | 500 to 1000
CC[C@H](CO)NC(=O)C(=O)c1c(C)c(C(=O)Nc2ccc(F)c(C)c2)c(C)n1C [Example 140, (R)-N-(4-fluoro-3-methylphenyl)-5-(2-((1-hydroxybutan-2-yl)amino)-2-oxoacetyl)-1,2,4-trimethyl-1H-pyrrole-3-carboxamide] | > 30 | < 50
O=C(NC1(CO)CC(F)(F)C1)C(=O)c1c(Cl)c(C(=O)Nc2ccc(F)c(Cl)c2)c2n1CCCC2 [Example 515, 2-chloro-N-(3-chloro-4-fluorophenyl)-3-(2-((3,3-difluoro-1-(hydroxymethyl)cyclobutyl)amino)-2-oxoacetyl)-5,6,7,8-tetrahydroindolizine-1-carboxamide] | 5 to 30 | < 50
Nc1ncc(CNC(=O)C(=O)c2c(Cl)c(C(=O)Nc3ccc(F)c(Cl)c3)c3n2CCC3)s1 [Example 562, 5-(2-(((2-aminothiazol-5-yl)methyl)amino)-2-oxoacetyl)-6-chloro-N-(3-chloro-4-fluorophenyl)-2,3-dihydro-1H-pyrrolizine-7-carboxamide] | 5 to 30 | < 50
Cc1nc(CCNC(=O)C(=O)c2c(C)c(C(=O)Nc3ccc(F)c(C)c3)c(C)n2C)c(C)s1 [Example 327, 5-(2-((2-(2,5-dimethylthiazol-4-yl)ethyl)amnio)-2-oxoacetyl)-N-(4-fluoro-3-methylphenyl)-1,2,4-trimethyl-1H-pyrrole-3-carboxamide] | > 30 | < 50
Cc1cc(NC(=O)c2cc(C(=O)C(=O)NC(C)(C)C)n3c2CNCC3)ccc1F [Example 588, 6-(2-(tert-butylamino)-2-oxoacetyl)-N-(4-fluoro-3-methylphenyl)-1,2,3,4-tetrahydropyrrolo[1,2-a]pyrazine-8-carboxamide] | 5 to 30 | 50 to 499
Cc1noc([C@H](C)NC(=O)C(=O)c2c(Cl)c(C(=O)Nc3ccc(F)c(F)c3)c3n2CCCC3)n1 [Example 516, (S)-2-chloro-N-(3,4-difluorophenyl)-3-(2-((1-(3-methyl-1,2,4-oxadiazol-5-yl)ethyl)amino)-2-oxoacetyl)-5,6,7,8-tetrahydroindolizine--1 carboxamide] | > 30 | 50 to 499
Cc1cc(NC(=O)c2c(C)c(C(=O)C(=O)N[C@@H]3CC[C@@H](O)C3)n(C)c2C)cnc1F [Example 176, N-(6-fluoro-5-methylpyridin-3-yl)-5-(2-(((1R,3R)-3-hydroxycyclopentyl)amino)-2-oxoacetyl)-1,2,4-trimethyl-1H-pyrrole-3-carboxamide] | > 30 | 50 to 499
COC(=O)[C@@H](NC(=O)C(=O)c1c(C)c(C(=O)Nc2ccc(F)c(C)c2)c(C)n1C)C1CCCCC1 [Example 55, methyl (S)-2-cyclohexyl-2-(2-(4-((4-fluoro-3-methylphenyl)carbamoyl)-1,3,5-trimethyl-1H-pyrrol-2-yl)-2-oxoacetamido)acetate] | 0.5 to 4.99 | 500 to 1000
Cc1cc(NC(=O)c2c(C)c(C(=O)C(=O)N[C@@H]3CCOC[C@H]3O)n(C)c2C)cnc1F [Example 164, N-(6-fluoro-5-methylpyridin-3-yl)-5-(2-(((3S,4R)-3-hydroxytetrahydro-2H-pyran-4-yl)amino)-2-oxoacetyl)-1,2,4-trimethyl-1H-pyrrole-3-carboxamide] | > 30 | 500 to 1000
Cc1cc(NC(=O)c2c(Cl)c(C(=O)C(=O)NC3(CO)CCC3)n3c2CCC3)ccc1F [Example 541, 6-chloro-N-(4-fluoro-3-methylphenyl)-5-(2-((1-(hydroxymethyl)cyclobutyl)amino)-2-oxoacetyl)-2,3-dihydro-1H-pyrrolizine-7-carboxamide] | > 30 | < 50
Cc1c(C(=O)Nc2cccc(C(F)F)c2)c(C)n(C)c1C(=O)C(=O)N[C@@H]1CCC[C@@H](O)C1 [Example 704, N-(3-(difluoromethyl)phenyl)-5-(2-(((1R,3R)-3-hydroxycyclohexyl)amino)-2-oxoacetyl)-1,2,4-trimethyl-1H-pyrrole-3-carboxamide] | > 30 | < 50
CC(C)(C)NC(=O)C(=O)c1cc(C(=O)Nc2ccc(F)c(F)c2)c2n1CCCC2 [Example 398, 3-(2-(tert-butylamino)-2-oxoacetyl)-N-(3,4-difluorophenyl)-5,6,7,8-tetrahydroindolizine-1-carboxamide] | > 30 | 50 to 499
Cc1c(C(=O)Nc2ccnc(Cl)c2)c(C)n(C)c1C(=O)C(=O)N[C@H](C)C(F)(F)F [Example 208, (R)-N-(2-chloropyridin-4-yl)-1,2,4-trimethyl-5-(2-oxo-2-((1,1,1-trifluoropropan-2-yl)amino)acetyl)-1H-pyrrole-3-carboxamide] | > 30 | < 50
Cc1cc(NC(=O)c2c(C)c(C(=O)C(=O)N[C@H]3CC[C@@H](C#N)CC3)n(C)c2C)ccc1F [Example 283] | 5 to 30 | < 50
Cc1cc(NC(=O)C(=O)c2c(C)c(C(=O)Nc3ccc(F)c(C)c3)c(C)n2C)on1 [Example 304, N-(4-fluoro-3-methylphenyl)-1,2,4-trimethyl-5-(2-((3-methylisoxazol-5-yl)amino)-2-oxoacetyl)-1H-pyrrole-3-carboxamide] | 5 to 30 | < 50
Cc1nc2c(s1)C(NC(=O)C(=O)c1c(C)c(C(=O)Nc3ccc(F)c(C)c3)c(C)n1C)CCC2 (stereo not drawn) [Example 355, N-(4-fluoro-3-methylphenyl)-1,2,4-trimethyl-5-(2-((2-methyl-4,5,6,7-tetrahydrobenzo[d]thiazol-7-yl)amino)-2-oxoacetyl)-1H-pyrrole-3-carboxamide] | > 30 | < 50
Cc1c(C(=O)Nc2ccc(F)c(Cl)c2)c(C)n(C)c1C(=O)C(=O)N[C@]1(C)CC[C@@H](O)CC1 [Example 333, N-(3-chloro-4-fluorophenyl)-5-(2-(((1r,4r)-4-hydroxy-1-methylcyclohexyl)amino)-2-oxoacetyl)-1,2,4-trimethyl-1H-pyrrole-3-carboxamide] | > 30 | < 50
